In ChEMBL document CHEMBL3045602, “Synthesis and antimicrobial activity of novel derivatives of Biginelli pyrimidines” (2012):
Converted amounts (≈) assume the structure as drawn.

Columns and labels:
Format in all cases: functional
Salmonella enteritidis = test: Antimicrobial activity against Salmonella enterica subsp. enterica serovar Enteritidis PTCC 1091 after 24 hr by Alamar blue assay; conditions: PTCC 1091, 24 h
Bacillus subtilis = test: Antimicrobial activity against Bacillus subtilis PTCC 1023 after 24 hr by Alamar blue assay; conditions: PTCC 1023, 24 h
Aspergillus niger = test: Antimicrobial activity against Aspergillus niger 5021 after 24 hr by Alamar blue assay; conditions: Aspergillus niger, 5021, 24 h
Staphylococcus aureus = test: Antimicrobial activity against Staphylococcus aureus PTCC 1337 after 24 hr by Alamar blue assay; conditions: PTCC 1337, 24 h
Escherichia coli = test: Antimicrobial activity against Escherichia coli PTCC 1338 after 24 hr by Alamar blue assay; conditions: PTCC 1338, 24 h
Pseudomonas aeruginosa = test: Antimicrobial activity against Pseudomonas aeruginosa PTCC 1074 after 24 hr by Alamar blue assay; conditions: PTCC 1074, 24 h
Listeria monocytogenes = test: Antimicrobial activity against Listeria monocytogenes PTCC 1165 after 24 hr by Alamar blue assay; conditions: PTCC 1165, 24 h
Candida albicans = test: Antimicrobial activity against Candida albicans PTCC 5027 after 24 hr by Alamar blue assay; conditions: PTCC 5027, 24 h

SMILES	MIC (Salmonella enteritidis) [µg/mL]	MIC (Bacillus subtilis) [µg/mL]	MIC (Aspergillus niger) [µg/mL]	MIC (Staphylococcus aureus) [µg/mL]	MIC (Escherichia coli) [µg/mL]	MIC (Pseudomonas aeruginosa) [µg/mL]	MIC (Listeria monocytogenes) [µg/mL]	MIC (Candida albicans) [µg/mL]
CC1=C(C(=O)OCC(C)C)C(c2cccs2)NC(S)=N1 (configuration not stated)	> 512	> 512	> 512	512 (≈ 1650 µM)	512 (≈ 1650 µM)	> 512	512 (≈ 1650 µM)	> 512
CC1=C(C(=O)OC(C)C)C(c2cccs2)NC(S)=N1 (configuration not stated)	> 512	> 512	> 512	> 512	> 512	> 512	> 512	> 512
CSc1ncc(C2NC(=O)NC(C)=C2C(=O)Nc2ccc(Cl)cc2)n1Nc1ccccc1 (configuration not stated)	512 (≈ 1090 µM)	> 512	64 (≈ 136 µM)	> 512	512 (≈ 1090 µM)	> 512	> 512	32 (≈ 68.2 µM)
CSc1ncc(C2NC(=O)NC(C)=C2C(=O)Nc2ccccn2)n1Nc1ccccc1 (configuration not stated)	> 512	> 512	64 (≈ 147 µM)	> 512	> 512	> 512	> 512	32 (≈ 73.5 µM)
CSc1ncc(C2NC(=O)NC(C)=C2C(=O)Nc2cccnc2)n1Nc1ccccc1 (configuration not stated)	> 512	> 512	64 (≈ 147 µM)	> 512	512 (≈ 1180 µM)	512 (≈ 1180 µM)	> 512	32 (≈ 73.5 µM)
CC1=C(C(=O)Nc2ccccc2Cl)C(c2cccs2)NC(=O)N1 (configuration not stated)	> 512	256 (≈ 736 µM)	> 512	512 (≈ 1470 µM)	> 512	> 512	256 (≈ 736 µM)	> 512
CC1=C(C(=O)Nc2cccc(Cl)c2)C(c2cccs2)NC(=O)N1 (configuration not stated)	> 512	512 (≈ 1470 µM)	> 512	512 (≈ 1470 µM)	> 512	> 512	256 (≈ 736 µM)	> 512
CC1=C(C(=O)Nc2ccc(Cl)cc2)C(c2cccs2)NC(=O)N1 (configuration not stated)	512 (≈ 1470 µM)	512 (≈ 1470 µM)	> 512	256 (≈ 736 µM)	> 512	512 (≈ 1470 µM)	512 (≈ 1470 µM)	> 512
CC1=C(C(=O)Nc2ccccn2)C(c2cccs2)NC(=O)N1 (configuration not stated)	512 (≈ 1630 µM)	> 512	> 512	512 (≈ 1630 µM)	> 512	512 (≈ 1630 µM)	512 (≈ 1630 µM)	> 512
CC1=C(C(=O)Nc2cccnc2)C(c2cccs2)NC(=O)N1 (configuration not stated)	512 (≈ 1630 µM)	> 512	> 512	> 512	> 512	512 (≈ 1630 µM)	512 (≈ 1630 µM)	> 512
COC(=O)C1=C(C)NC(=O)NC1c1cnc(SC)n1Cc1ccccc1 (configuration not stated)	> 512	512 (≈ 1370 µM)	256 (≈ 687 µM)	512 (≈ 1370 µM)	512 (≈ 1370 µM)	512 (≈ 1370 µM)	> 512	256 (≈ 687 µM)
CCOC(=O)C1=C(C)NC(=O)NC1c1cnc(SC)n1Cc1ccccc1 (configuration not stated)	512 (≈ 1320 µM)	512 (≈ 1320 µM)	64 (≈ 166 µM)	> 512	256 (≈ 662 µM)	256 (≈ 662 µM)	512 (≈ 1320 µM)	64 (≈ 166 µM)
COC(=O)C1=C(C)NC(=O)NC1c1cnc(SC)n1Nc1ccccc1 (configuration not stated)	512 (≈ 1370 µM)	> 512	128 (≈ 343 µM)	> 512	512 (≈ 1370 µM)	256 (≈ 686 µM)	> 512	128 (≈ 343 µM)
CCOC(=O)C1=C(C)NC(=O)NC1c1cnc(SC)n1Nc1ccccc1 (configuration not stated)	512 (≈ 1320 µM)	> 512	128 (≈ 330 µM)	> 512	256 (≈ 661 µM)	128 (≈ 330 µM)	> 512	64 (≈ 165 µM)
CCCCOC(=O)C1=C(C)NC(=S)NC1c1cccs1 (configuration not stated)	> 512	512 (≈ 1650 µM)	> 512	512 (≈ 1650 µM)	256 (≈ 825 µM)	512 (≈ 1650 µM)	512 (≈ 1650 µM)	> 512
CSc1ncc(C2NC(=O)NC(C)=C2C(=O)Nc2ccccc2Cl)n1Cc1ccccc1 (configuration not stated)	> 512	> 512	256 (≈ 547 µM)	> 512	512 (≈ 1090 µM)	512 (≈ 1090 µM)	> 512	256 (≈ 547 µM)
CSc1ncc(C2NC(=O)NC(C)=C2C(=O)Nc2cccc(Cl)c2)n1Cc1ccccc1 (configuration not stated)	256 (≈ 547 µM)	256 (≈ 547 µM)	128 (≈ 274 µM)	128 (≈ 274 µM)	> 512	256 (≈ 547 µM)	> 512	256 (≈ 547 µM)
CSc1ncc(C2NC(=O)NC(C)=C2C(=O)Nc2ccc(Cl)cc2)n1Cc1ccccc1 (configuration not stated)	> 512	> 512	256 (≈ 547 µM)	256 (≈ 547 µM)	256 (≈ 547 µM)	256 (≈ 547 µM)	> 512	256 (≈ 547 µM)
CSc1ncc(C2NC(=O)NC(C)=C2C(=O)Nc2ccccn2)n1Cc1ccccc1 (configuration not stated)	> 512	> 512	128 (≈ 295 µM)	> 512	256 (≈ 589 µM)	256 (≈ 589 µM)	> 512	64 (≈ 147 µM)
CSc1ncc(C2NC(=O)NC(C)=C2C(=O)Nc2cccnc2)n1Cc1ccccc1 (configuration not stated)	512 (≈ 1180 µM)	512 (≈ 1180 µM)	128 (≈ 295 µM)	512 (≈ 1180 µM)	256 (≈ 589 µM)	256 (≈ 589 µM)	> 512	128 (≈ 295 µM)
CSc1ncc(C2NC(=O)NC(C)=C2C(=O)Nc2ccccc2Cl)n1Nc1ccccc1 (configuration not stated)	> 512	> 512	128 (≈ 273 µM)	> 512	256 (≈ 546 µM)	256 (≈ 546 µM)	> 512	128 (≈ 273 µM)
CSc1ncc(C2NC(=O)NC(C)=C2C(=O)Nc2cccc(Cl)c2)n1Nc1ccccc1 (configuration not stated)	> 512	> 512	128 (≈ 273 µM)	> 512	> 512	512 (≈ 1090 µM)	> 512	128 (≈ 273 µM)
O=C(O)c1cn(C2CC2)c2cc(N3CCNCC3)c(F)cc2c1=O [CIPROFLOXACIN]	1 (≈ 3.02 µM)	0.06 (≈ 0.181 µM)	–	0.5 (≈ 1.51 µM)	–	–	1 (≈ 3.02 µM)	–
CC(=O)N1CCN(c2ccc(OCC3COC(Cn4ccnc4)(c4ccc(Cl)cc4Cl)O3)cc2)CC1 (configuration not stated) [KETOCONAZOLE]	–	–	4 (≈ 7.53 µM)	–	–	–	–	2 (≈ 3.76 µM)
